Here are results for one compound from article PMC6934184, “Selective DNA-PKcs inhibition extends the therapeutic index of localized radiotherapy and chemotherapy” (The Journal of Clinical Investigation, 2019).

For orientation: inhibition means the drop in the measured response relative to a control, in per cent. Low readings indicate little suppression, high ones strong suppression.

The target of the assay is T1, MAP4K2 (GCK) (Homo sapiens, UniProt Q12851).
T1 construct: purchased Thermo Fisher Scientific (Life Technologies) SelectScreen
T1 sequence (Q12851 whole entry): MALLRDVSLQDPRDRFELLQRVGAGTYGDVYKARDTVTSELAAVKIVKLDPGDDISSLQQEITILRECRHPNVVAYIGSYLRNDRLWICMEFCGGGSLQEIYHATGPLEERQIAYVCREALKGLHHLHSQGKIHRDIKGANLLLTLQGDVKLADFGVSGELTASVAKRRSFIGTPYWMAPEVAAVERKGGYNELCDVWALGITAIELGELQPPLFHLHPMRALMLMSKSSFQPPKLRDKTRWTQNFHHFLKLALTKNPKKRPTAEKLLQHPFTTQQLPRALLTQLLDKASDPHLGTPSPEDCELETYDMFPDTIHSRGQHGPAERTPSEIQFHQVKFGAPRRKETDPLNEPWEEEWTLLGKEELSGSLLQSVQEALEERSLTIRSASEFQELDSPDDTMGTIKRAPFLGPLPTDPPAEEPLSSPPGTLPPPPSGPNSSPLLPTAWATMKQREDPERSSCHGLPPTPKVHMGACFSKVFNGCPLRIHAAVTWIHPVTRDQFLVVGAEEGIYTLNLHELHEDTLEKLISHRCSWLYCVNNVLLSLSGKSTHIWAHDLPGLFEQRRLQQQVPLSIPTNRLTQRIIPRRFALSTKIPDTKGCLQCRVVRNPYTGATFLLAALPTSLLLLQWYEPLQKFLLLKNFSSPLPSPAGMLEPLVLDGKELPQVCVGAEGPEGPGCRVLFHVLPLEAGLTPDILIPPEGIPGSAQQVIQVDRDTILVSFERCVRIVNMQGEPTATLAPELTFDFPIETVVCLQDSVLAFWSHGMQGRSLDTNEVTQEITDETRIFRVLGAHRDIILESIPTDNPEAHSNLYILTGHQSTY
The experiment in a line: SelectScreen Z'LYTE. It is filed as biochemical. A digest of the protocol: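 Percent values come from Thermo SelectScreen profiling of NU5455, combining activity and binding assays. CSF1R was run in Z'LYTE format at Km app ATP, and CAMK1 in Adapta format with ATP listed at 10.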

In turn, `CN(C(=O)CN1CCOCC1)c1ccc2sc3c(-c4cccc5c(=O)cc(N6CC7CCC(C6)O7)oc45)cccc3c2c1` [NU5455] displayed an inhibition at 1 µM of 2.7%.
